# Measurements from ChEMBL document CHEMBL1201862, “PubChem BioAssay data set” (2004).
#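 Tested at 5 concentrations; 48 h exposure; 96-well plates; endpoints linearly interpolated, else capped at highest concentration. GI50 is the concentration that inhibits growth by half.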 The source made the active and inactive calls. No stated cut-off is given here; in the data, active = GI50 up to about 1.1 µM and inactive = higher.
# Experiments:
# Experiment in all cases: NCI-60 cell line screen, 48 h
# ACHN = tested on: ACHN
# SF-268 = tested on: SF-268
# SK-MEL-5 = tested on: SK-MEL-5
# RPMI-8226 = tested on: RPMI-8226
# SK-OV-3 = tested on: SK-OV-3
# EKVX = tested on: EKVX
# HCC 2998 = tested on: HCC 2998
# M14 = tested on: M14
# SR = tested on: SR
# HCT-15 = tested on: HCT-15
# UO-31 = tested on: UO-31
# CCRF-CEM = tested on: CCRF-CEM
# MOLT-4 = tested on: MOLT-4
# HT-29 = tested on: HT-29
# OVCAR-8 = tested on: OVCAR-8
# HCT-116 = tested on: HCT-116
# OVCAR-4 = tested on: OVCAR-4
# 786-0 = tested on: 786-0
# SW-620 = tested on: SW-620
# HOP-92 = tested on: HOP-92
Structure (SMILES),GI50 (ACHN),GI50 (SF-268),GI50 (SK-MEL-5),GI50 (RPMI-8226),GI50 (SK-OV-3),GI50 (EKVX),GI50 (HCC 2998),GI50 (M14),GI50 (SR),GI50 (HCT-15) [µM],GI50 (UO-31),GI50 (CCRF-CEM),GI50 (MOLT-4),GI50 (HT-29),GI50 (OVCAR-8),GI50 (HCT-116),GI50 (OVCAR-4),GI50 (786-0),GI50 (SW-620),GI50 (HOP-92)
CCN1CCN=c2c3cc(OC)ccc3n3cnc4ccc1c2c43,0.131 µM (active),0.427 µM (active),0.27 µM (active),0.171 µM (active),0.348 µM (active),0.231 µM (active),0.244 µM (active),0.245 µM (active),0.0283 µM (active),0.177,0.147 µM (active),0.102 µM (active),0.0879 µM (active),0.173 µM (active),0.0863 µM (active),0.0565 µM (active),0.371 µM (active),0.0759 µM (active),0.824 µM (active),0.776 µM (active)
CCOC(=O)N1CCN(Cc2cc(=O)n3ccc(C)cc3n2)CC1,> 100 µM (inactive),> 100 µM (inactive),> 100 µM (inactive),> 100 µM (inactive),> 100 µM (inactive),> 100 µM (inactive),> 100 µM (inactive),> 100 µM (inactive),> 100 µM (inactive),> 100,> 100 µM (inactive),> 100 µM (inactive),> 100 µM (inactive),> 100 µM (inactive),> 100 µM (inactive),> 100 µM (inactive),> 100 µM (inactive),> 100 µM (inactive),> 100 µM (inactive),> 100 µM (inactive)
COc1ccc(OC)c2c1C=CC(Br)=CC2,0.312 µM (active),0.313 µM (active),0.216 µM (active),0.162 µM (active),0.0582 µM (active),0.309 µM (active),0.195 µM (active),0.237 µM (active),0.191 µM (active),0.201,0.332 µM (active),0.39 µM (active),0.144 µM (active),0.136 µM (active),0.43 µM (active),0.232 µM (active),0.4 µM (active),0.193 µM (active),0.234 µM (active),0.148 µM (active)
CCN(CC)CCOc1ccc(/C=C(\C#N)c2ccc(OCCN(CC)CC)cc2)cc1,27.3 µM (inactive),19.1 µM (inactive),4.48 µM (inactive),13 µM (inactive),28.2 µM (inactive),> 51.2 µM (inactive),15.7 µM (inactive),7.64 µM (inactive),7.89 µM (inactive),14.5,14.7 µM (inactive),3.44 µM (inactive),9.12 µM (inactive),1.43 µM (inactive),20.5 µM (inactive),5.87 µM (inactive),37.3 µM (inactive),11.3 µM (inactive),15.3 µM (inactive),16.9 µM (inactive)
Cc1ccc(S(=O)(=O)N(CC(O)COc2ccccc2)c2c(F)c(F)c(F)c(F)c2F)cc1 (stereo not given),15.7 µM (inactive),14.5 µM (inactive),12.4 µM (inactive),1.04 µM (active),19.9 µM (inactive),17.9 µM (inactive),17.3 µM (inactive),20 µM (inactive),20.7 µM (inactive),16.5,12.6 µM (inactive),< 0.01 µM (active),21.6 µM (inactive),16.2 µM (inactive),17.1 µM (inactive),17 µM (inactive),13.3 µM (inactive),19.5 µM (inactive),18.7 µM (inactive),8.49 µM (inactive)
CCOC(=O)CSc1nc(N)c2c(-c3ccccc3)c3c(nc2n1)CCCC3,> 100 µM (inactive),> 100 µM (inactive),> 100 µM (inactive),> 100 µM (inactive),> 100 µM (inactive),> 100 µM (inactive),> 100 µM (inactive),> 100 µM (inactive),> 100 µM (inactive),> 100,25.1 µM (inactive),> 100 µM (inactive),> 100 µM (inactive),> 100 µM (inactive),> 100 µM (inactive),> 100 µM (inactive),> 100 µM (inactive),> 100 µM (inactive),> 100 µM (inactive),> 100 µM (inactive)
O=C1N[C@@H]([C@H]2CC[C@H](Cl)CN2)C(=O)N[C@H]1[C@H]1CC[C@H](Cl)CN1,0.1 µM (active),0.466 µM (active),1.21 µM (inactive),1.32 µM (inactive),0.836 µM (active),3.32 µM (inactive),0.923 µM (active),0.158 µM (active),0.1 µM (active),1.14,1.04 µM (active),0.152 µM (active),0.103 µM (active),1.83 µM (inactive),0.853 µM (active),0.743 µM (active),2.77 µM (inactive),0.1 µM (active),0.962 µM (active),0.757 µM (active)
CN1CCCN2CCN(C)CCN(CC1)CC2,> 100 µM (inactive),> 100 µM (inactive),> 100 µM (inactive),> 100 µM (inactive),> 100 µM (inactive),> 100 µM (inactive),> 100 µM (inactive),> 100 µM (inactive),> 100 µM (inactive),> 100,> 100 µM (inactive),> 100 µM (inactive),> 100 µM (inactive),> 100 µM (inactive),> 100 µM (inactive),> 100 µM (inactive),> 100 µM (inactive),> 100 µM (inactive),> 100 µM (inactive),> 100 µM (inactive)
Cc1cc(-c2ccccc2)nc(Nc2nc3ccccc3o2)n1,> 100 µM (inactive),> 100 µM (inactive),> 100 µM (inactive),> 100 µM (inactive),> 100 µM (inactive),> 100 µM (inactive),> 100 µM (inactive),> 100 µM (inactive),> 100 µM (inactive),> 100,> 100 µM (inactive),74 µM (inactive),> 100 µM (inactive),> 100 µM (inactive),> 100 µM (inactive),> 100 µM (inactive),> 100 µM (inactive),> 100 µM (inactive),> 100 µM (inactive),89.3 µM (inactive)
O=[N+]([O-])C1=Cc2c(O)ccc(O)c2C2c3ccccc3NC12 (stereo not given),5.83 µM (inactive),16.7 µM (inactive),12.8 µM (inactive),10.4 µM (inactive),29 µM (inactive),14.8 µM (inactive),7.52 µM (inactive),13.2 µM (inactive),13.5 µM (inactive),13,5.33 µM (inactive),3.88 µM (inactive),3.18 µM (inactive),9.02 µM (inactive),5.82 µM (inactive),9.16 µM (inactive),16 µM (inactive),12.1 µM (inactive),9.1 µM (inactive),7.28 µM (inactive)
CS(=O)(=O)c1nc(N)nc2nc[nH]c12,> 100 µM (inactive),> 100 µM (inactive),> 100 µM (inactive),> 100 µM (inactive),> 100 µM (inactive),> 100 µM (inactive),> 100 µM (inactive),> 100 µM (inactive),> 100 µM (inactive),> 100,> 100 µM (inactive),> 100 µM (inactive),> 100 µM (inactive),> 100 µM (inactive),> 100 µM (inactive),> 100 µM (inactive),> 100 µM (inactive),> 100 µM (inactive),> 100 µM (inactive),> 100 µM (inactive)
C/C(Cl)=N/OC(=O)Nc1ccc(S(N)(=O)=O)c(C)c1,2.15 µM (inactive),26.1 µM (inactive),12.9 µM (inactive),1.95 µM (inactive),> 43.5 µM (inactive),5.75 µM (inactive),18.4 µM (inactive),9.14 µM (inactive),1.86 µM (inactive),2.02,14.9 µM (inactive),1.07 µM (active),1.5 µM (inactive),17.8 µM (inactive),24.7 µM (inactive),12 µM (inactive),15.5 µM (inactive),2.03 µM (inactive),2.38 µM (inactive),2 µM (inactive)
O=c1c2ccc(Cl)cc2oc2c(CNc3ccc(S(=O)(=O)Nc4nccs4)cc3)cccc12,> 100 µM (inactive),> 100 µM (inactive),> 100 µM (inactive),> 100 µM (inactive),> 100 µM (inactive),> 100 µM (inactive),> 100 µM (inactive),> 100 µM (inactive),> 100 µM (inactive),> 100,> 100 µM (inactive),91.6 µM (inactive),> 100 µM (inactive),> 100 µM (inactive),> 100 µM (inactive),> 100 µM (inactive),> 100 µM (inactive),> 100 µM (inactive),> 100 µM (inactive),31.2 µM (inactive)
C[C@H](CCC(=O)NCCS(=O)(=O)O)[C@H]1CC[C@H]2[C@@H]3[C@H](O)C[C@@H]4C[C@H](O)CC[C@]4(C)[C@H]3CC[C@]12C,> 100 µM (inactive),> 100 µM (inactive),> 100 µM (inactive),> 100 µM (inactive),> 100 µM (inactive),> 100 µM (inactive),> 100 µM (inactive),> 100 µM (inactive),> 100 µM (inactive),> 100,> 100 µM (inactive),> 100 µM (inactive),> 100 µM (inactive),> 100 µM (inactive),> 100 µM (inactive),> 100 µM (inactive),> 100 µM (inactive),> 100 µM (inactive),> 100 µM (inactive),> 100 µM (inactive)
